# Test results as given in US6623933B1 (priority 1999, dated 2003).
# Read-outs that look alike come from different tables or passages of the source.
# What was measured:
# [1] = molecular target: T1, GluR3 AMPA receptor (Rattus norvegicus, UniProt P19492); assay: Kainate-induced currents, Xenopus oocytes injected with GluR3 cRNA; type: cell-based; settings: GluR3; steroid 100 μM; 100 μM kainate; −100 mV
# T1 construct: expressed in transfected cells; host or cells: Xenopus oocytes injected with GluR3 cRNA
# Text: (§1) Plasmids were obtained from the following individuals: Dr. Suzanne Zukin (Albert Einstein College of Medicine, Bronx, N.Y.), NR1100; Dr. Shigetada Nakanishi (Kyoto University Faculty of Medicine, Kyoto, Japan), NR2A; Dr. Stephen Heinemann (Salk Institute, San Diego, Calif.), GluR1 (flop), GluR3 (flop), and GluR6. Plasmids were linearized with BamH1 (NR1100), XhoI (NR2A, GluR1, GluR3) or XbaI (GluR6) prior to in vitro transcription with T3 (GluR1, GluR3, GluR6) or T7 (NR1100, NR2A) RNA polymerase using the Message Machine kit (Ambion, Austin, Tex.). […] RNA solutions (50-70 nl) were injected into oocytes for delivery of NR1100 (5 ng), NR1100:NR2A (1:10 ng), GluR1 (5 ng). GluR3 (5 ng), or GluR6 (20 ng). Oocytes were incubated in ND96 at 18-20° C. for 3-7 days prior to electrophysiological recording.
# (§2) Steroid solutions were prepared as 70-100 mM frozen stocks in dimethyl sulfoxide (DMSO). The final DMSO concentration of all recording solutions was between 0.1% to 0.5% and was constant within an experiment.
# (§3) Perfusion control and data acquisition were carried out using an automated oocyte electrophysiology workstation that was developed for the rapid collection of concentration-response data and real-time waveform analysis (Yaghoubi et al., Soc. Neurosci. Abstr. 20: 1109 (1995)). This system is implemented on a Macintosh IIci computer (Apple Computer, Cupertino, Calif.) equipped with MacA-DIOS II data acquisition and control hardware (GW Instruments, Somerville, Mass.). Drug application is controlled by the computer through a series of valves, using custom-written software based on the SuperScope II development environment, improving the efficiency and reproducibility of data collection. Experiments were carried out using an Axoclamp-2A voltage clamp amplifier (Axon Instruments, Foster City, Calif.) in two-electrode voltage clamp mode. Intracellular microelectrodes (1-3 MΩ) were filled with 3 M KCl. […] Membrane potential was clamped at −60 to −70 mV and stepped to −100 mV at the start of data acquisition unless otherwise stated. […] Current and voltage recordings were digitized at 100 Hz for analysis. GluR6 injected oocytes were treated for 10 min with 10 μg/ml concanavalin A to prevent fast desensitization.
# (§4) Results are expressed as mean±S.E.M. Statistical comparisons were made using Student's t-test.
# [2] = molecular target: T2, GluR1 AMPA receptor (Rattus norvegicus, UniProt P19490); assay: Kainate-induced currents, Xenopus oocytes injected with GluR1 cRNA; type: cell-based; settings: GluR1; steroid 100 μM; 100 μM kainate; −100 mV
# T2 construct: expressed in transfected cells; host or cells: Xenopus oocytes injected with GluR1 cRNA
# Text: as §1, §2, §3, §4
# [3] = molecular target: T3, GluR6 kainate receptor (Rattus norvegicus, UniProt P42260); assay: Kainate-induced currents, Xenopus oocytes injected with GluR6 cRNA; type: cell-based; settings: GluR6; steroid 100 μM; 10 μM kainate; −100 mV
# T3 construct: expressed in transfected cells; host or cells: Xenopus oocytes injected with GluR6 cRNA (concanavalin A treated)
# Text: as §1, §2, §3, §4
# [4] = molecular target: NR1/NR2B (NR1100) (Rattus norvegicus, UniProt P35439+Q00960)
# Description: (§5) Plasmids containing the NR1100 (NR1G) and NR2A cDNA inserts were kindly provided by Dr. Nakanishi (Kyoto University Faculty of Medicine, Kyoto, Japan). Plasmids containing the NR2B, NR2C and NR2D cDNA inserts were kindly provided by Dr. P. Seeburg (Heidelberg University, Heidelberg, Germany). Plasmids were linearized with appropriate restriction enzyme prior to in vitro transcription using the Message Machine kit (Ambion, Inc., Austin, Tex.).
# (§6) Female, oocyte-positive Xenopus laevis frogs were purchased from Xenopus I (Dexter, Mich.). […] Oocytes were injected with 50 nL of RNA solutions using an electronic microinjector (Drummond Inc., Broomall, Pa.). […] The injected oocytes were used for experiments following 1-5 days of incubation in Barth's solution at 18-20° C.
# (§7) The microelectrodes were fabricated from borosilicate glass capillaries with a programmed puller (Sutter Instrument Co., Calif.). Microelectrode resistance was 1-3 MΩ_when filled with 3 M KCl.
# (§8) Except where otherwise stated, oocytes were clamped at a holding potential of −70 mV during data acquisition. The membrane current was filtered at 500 Hz and sampled at 100 Hz. Drugs were applied using a gravity-driven external perfusion system. The working volume of the recording chamber was 30 μl and the rate of the perfusion was 50 μl/sec. The drug application lasted 10 sec and was followed by 60 s wash. Data acquisition and external perfusion were controlled using custom-written software implemented in the SuperScope II development environment (GW Instruments, Mass.). All experiments were performed at room temperature of 22-24° C. Peak or steady-state current measurements were normalized and expressed as a fraction of the peak or steady-state control current measurements, which were performed before and after application of every single concentration of agonists or steroids.
# (§9) Concentration-response data were analyzed by nonlinear regress ion using the logistic equation Response=Emax/(1+(EC50/c)^nH), where c is concentration, Emaxis the maximum response, nHis the Hill coefficient. The data are presented as mean±SEM. EC50values are averaged as logarithms (De Lean et al., Am. J. Physiol. 235: E97-E102 (1978))±the SEM of the log EC50. […] The pooled data were simultaneously fitted to the logistic equation, either with Emax and EC50 constrained to be identical in the presence and absence of PS, or allowing one or both to vary independently. […] This was regarded as indicating a significant treatment effect of PS, but the change in EC50and Emaxwas not considered significant. […] No attempt was made to test the generally small changes in nHfor statistical significance.
# [5] = molecular target: NR1101/NR2A (Rattus norvegicus, UniProt P35439+Q00959); set-up: agonist Emax: dose or concentration left out as unconfirmed; settings: NR1101/NR2A
# [6] = molecular target: NR1/NR2A (NR1100) (Rattus norvegicus, UniProt P35439+Q00959); settings: +100 μM PS
# Description: as §5, §6, §7, §8, §9
# [7] = molecular target: NR1011/NR2A (Rattus norvegicus, UniProt P35439+Q00959); set-up: agonist Emax: dose or concentration left out as unconfirmed; settings: NR1011/NR2A; presence of PS
# [8] = molecular target: NR1000/NR2A (Rattus norvegicus, UniProt P35439+Q00959); set-up: agonist Emax: dose or concentration left out as unconfirmed; settings: NR1000/NR2A
# Sequence of NR1000/NR2A (Q00959 23-1464, other chains not shown): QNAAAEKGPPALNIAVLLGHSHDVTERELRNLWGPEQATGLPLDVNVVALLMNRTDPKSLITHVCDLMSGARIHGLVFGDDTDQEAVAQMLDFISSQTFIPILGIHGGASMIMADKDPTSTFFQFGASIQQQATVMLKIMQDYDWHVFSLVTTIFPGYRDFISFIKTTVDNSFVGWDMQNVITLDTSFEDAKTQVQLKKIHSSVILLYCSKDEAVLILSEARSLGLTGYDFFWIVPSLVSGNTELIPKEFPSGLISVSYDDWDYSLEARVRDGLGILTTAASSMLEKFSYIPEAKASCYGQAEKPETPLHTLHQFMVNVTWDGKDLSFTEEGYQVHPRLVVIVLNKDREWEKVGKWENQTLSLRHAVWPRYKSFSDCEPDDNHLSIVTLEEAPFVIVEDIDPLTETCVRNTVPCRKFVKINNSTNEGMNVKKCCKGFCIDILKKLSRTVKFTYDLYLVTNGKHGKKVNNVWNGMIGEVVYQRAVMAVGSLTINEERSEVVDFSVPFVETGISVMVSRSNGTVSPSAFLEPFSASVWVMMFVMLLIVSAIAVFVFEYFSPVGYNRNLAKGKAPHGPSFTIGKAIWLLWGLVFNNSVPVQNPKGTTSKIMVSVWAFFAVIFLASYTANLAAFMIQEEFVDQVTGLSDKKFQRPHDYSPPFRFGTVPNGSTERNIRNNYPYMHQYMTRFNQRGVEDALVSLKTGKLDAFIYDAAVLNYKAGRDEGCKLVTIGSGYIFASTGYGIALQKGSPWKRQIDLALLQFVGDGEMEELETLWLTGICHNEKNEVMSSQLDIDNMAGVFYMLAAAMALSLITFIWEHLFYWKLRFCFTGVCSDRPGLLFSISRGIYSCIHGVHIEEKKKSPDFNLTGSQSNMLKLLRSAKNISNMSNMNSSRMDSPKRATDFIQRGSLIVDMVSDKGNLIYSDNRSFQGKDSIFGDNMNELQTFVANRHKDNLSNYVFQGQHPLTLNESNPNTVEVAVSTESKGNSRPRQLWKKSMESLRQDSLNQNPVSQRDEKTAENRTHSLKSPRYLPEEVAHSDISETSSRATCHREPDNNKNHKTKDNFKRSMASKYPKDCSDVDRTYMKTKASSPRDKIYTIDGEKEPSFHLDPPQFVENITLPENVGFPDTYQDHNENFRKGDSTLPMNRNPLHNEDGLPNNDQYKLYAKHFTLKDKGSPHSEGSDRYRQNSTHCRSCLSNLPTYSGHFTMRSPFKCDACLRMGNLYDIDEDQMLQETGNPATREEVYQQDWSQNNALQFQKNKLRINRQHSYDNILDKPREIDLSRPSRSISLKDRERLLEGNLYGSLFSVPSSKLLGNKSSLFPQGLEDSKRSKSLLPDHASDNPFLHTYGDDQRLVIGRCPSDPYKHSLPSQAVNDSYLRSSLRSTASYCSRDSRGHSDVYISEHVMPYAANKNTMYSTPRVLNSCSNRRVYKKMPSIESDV
# [9] = molecular target: NR1010/NR2A (Rattus norvegicus, UniProt P35439+Q00959); set-up: agonist nHill / agonist Emax: dose or concentration left out as unconfirmed; settings: NR1010/NR2A
# Sequence of NR1010/NR2A (Q00959 23-1464, other chains not shown): as above
# [10] = molecular target: NR1/NR2C (NR1100) (Rattus norvegicus, UniProt P35439+Q00961); settings: NR1/NR2C; +100 μM PS
# [11] = molecular target: NR1001/NR2A (Rattus norvegicus, UniProt P35439+Q00959); set-up: agonist Emax: dose or concentration left out as unconfirmed; settings: NR1001/NR2A
# [12] = molecular target: NR1100/NR2A (Rattus norvegicus, UniProt P35439+Q00959); set-up: agonist nHill / agonist Emax: dose or concentration left out as unconfirmed; settings: NR1100/NR2A
# Sequence of NR1100/NR2A (Q00959 23-1464, other chains not shown): as above
# [13] = molecular target: NR1111/NR2A (Rattus norvegicus, UniProt P35439+Q00959); set-up: agonist Emax: dose or concentration left out as unconfirmed; settings: NR1111/NR2A
# [14] = molecular target: NR1/NR2D (NR1100) (Rattus norvegicus, UniProt P35439+Q62645)
# Description: as §5, §6, §7, §8, §9
# [15] = test system: primary cultures of rat hippocampal neurons; assay: NMDA-induced neuronal death, trypan blue exclusion; type: cell-based; settings: DNQX; 100 μM SR-95531; not shown
# Description: Principally neuronal cultures were prepared from hippocampal tissue of fetal Sprague-Dawley rats on day 18 of embryonic development, as previously described (Brewer et al., Brain Research 494: 65-74 (1989)). Briefly, hippocampal cells were dissociated by trituration in Ca^2+/Mg^2+-free Hank's basic salt solution (Gibco) supplemented with 4.2 mM bicarbonate, 1 mM sodium pyruvate, 20 mM HEPES, 3 mg/ml bovine serum albumin (BSA). Dissociated cells were then pelleted by centrifugation (500×g, 4 min). […] Cells were then plated onto poly-L-lysine-coated 24-well culture dishes (Nunclon) at a density of 15,000 cell/cm^2 and maintained in a humidified atmosphere containing 5% CO2/95% air at 37° C. After 48 h, nonneuronal cell division was inhibited by a 48 h exposure to 1 μM cytosine arabinoside. Cultures were subsequently maintained in serum-free DMEM plus defined components and were used for experiments 16 to 24 days after plating.
# Steroids were dissolved in DMSO (0.5% final concentration), and all treatment media contained 0.5% DMSO. […] Following exposure, cultures were washed 3 times with medium from sister cultures (conditioned medium). After the final wash, steroid or vehicle was reintroduced. Drugs were added to cultures in 25 μl of conditioned medium to yield a final volume of 0.25 ml per well. Except where otherwise noted, final steroid concentration was 100 μM.
# The ability of neurons to exclude trypan blue was used to quantitate cell viability (Dawson et al., Proc Natl Acad Sci USA 88: 6368-6371 (1991)). […] Cultures were then fixed with 4% paraformaldehyde in PBS for 30 min, at whichtime the fixative was replaced with PBS. The number of stained and unstained neurons were counted in 4 high-power fields per culture well, using an inverted phase contrast microscope under both bright field and phase contrast settings. Experiments were performed in triplicate, and all assessments were made with the experimenter blind to the treatment of each culture well. Percent cell death is expressed as follows: (number of trypan blue stained neurons)/(total number of neurons)×100%.
# All data are expressed as mean±standard error of the mean. Statistical significance was evaluated using 95% confidence limits unless otherwise noted.
structure (smiles),measurement,setting,value
C[C@]12CC[C@@H]3c4ccc(OS(=O)(=O)O)cc4CC[C@H]3[C@@H]1CC[C@H]2O [17α-Estradiol-3-sulfate],Percentage change in kainate response,[1],−17 ± 2(3) %
same,Percentage change in kainate response,[2],−22 ± 3(3) %
same,Percentage change in kainate response,[3],−7 ± 1(5) %
NCC(=O)O [glycine],agonist Emax,[4]; +100 μM PS,1.63 ± 0.04
same,agonist nH,[4]; +100 μM PS,1.15 ± 0.03
same,agonist nH,[4]; no PS,1.09 ± 0.04
same,agonist Emax,[5]; absence of PS,1.63 ± 0.04
same,agonist Emax,[5]; presence of PS,2.46 ± 0.23
same,agonist Emax,[6],2.34
same,agonist nH,[6],1.03 ± 0.05
same,agonist Emax,[7],2.24 ± 0.29
same,agonist Emax,[8]; absence of PS,1.48 ± 0.04
same,agonist nHill,[8]; absence of PS,0.90 ± 0.01
same,agonist Emax,[8]; presence of PS,2.88 ± 0.27
same,agonist Emax,[9]; absence of PS,1.51 ± 0.07
same,agonist Emax,[9]; presence of PS,1.92 ± 0.19
same,agonist nHill,[9]; presence of PS,1.38 ± 0.10
same,agonist Emax,[10],0.87
same,agonist nH,[10],1.11 ± 0.12
same,agonist Emax,[11]; absence of PS,1.89 ± 0.20
same,agonist Emax,[11]; presence of PS,2.77 ± 0.40
same,agonist Emax,[12]; absence of PS,1.52 ± 0.07
same,agonist Emax,[12]; presence,2.34 ± 0.09
same,agonist nHill,[12]; presence,1.03 ± 0.05
same,agonist Emax,[13]; absence of PS,1.93 ± 0.07
same,agonist Emax,[13]; presence of PS,2.68 ± 0.16
same,agonist Emax,[14]; +100 μM PS,0.74
same,agonist nH,[14]; +100 μM PS,0.95 ± 0.01
same,agonist Emax,[14]; no PS,1.22 ± 0.05
"O=C1N=c2cc([N+](=O)[O-])c([N+](=O)[O-])cc2=NC1=O [DNQX, 6,7-dinitroquinoxaline-2,3-dione]",effect on NMDA-induced neuronal death,[15],no effect
C[C@]12CC[C@H](O)CC1=CC[C@@H]1[C@@H]2CC[C@]2(C)C(=O)CC[C@@H]12 [Dehydroepiandrosterone],Percentage change in kainate response,[1],−7 ± 5(3) %
same,Percentage change in kainate response,[2],−16 ± 3(3) %
same,Percentage change in kainate response,[3],−5 ± 1(3) %
